From patent publication US7012129B2, “Antiviral composition comprising glycine amide” (priority 2001, dated 2006)
Peptide text beside a SMILES is read from it.

Tests used:
HIV-1 [1] = settings: for effect on HIV replication/infectivity (in words): 100 μM concentration; for p24 ng/ml Mean: 100 μM peptide, culture supernatant, day 7 after infection (FIG. 1), infected control 53.31
Text: The tripeptide amides made according to EXAMPLE 1 were used in several HIV-1 infectivity assays to determine the ability of said tripeptide amides to inhibit HIV replication and/or infection. The efficiency of HIV-1 replication and status of HIV-1 infection was monitored by the concentration of p24 protein in the cell supernatant.
In a first set of experiments, approximately 3×10^5 H9 cells were infected with HIV-1 (e.g., 50–100 TCID50 per 300,000 H9 cells) to test the inhibitory effect of various tripeptide amides provided at 100 μM concentration.
By one approach, virus was added at 50–100 TCID50 to 3×10^5 H9 cells in a total volume of 500 μl containing RPMI 1640 medium supplemented with 10% (v/v) heat-inactivated fetal bovine serum (FBS), L-Glutamine, and Bensylpenicillin and Streptomycin (PS) (approximately 0.5 ml added to 500 ml RPMI medium), all available through LifeTechnology/GIBCO laboratories. This media is referred to as “RPMI++ media.” Cell counting was accomplished using 0.2% tryphanblue dissolved in PBS and a Bürker cell counter chamber. The virus and cells were then mixed gently on a vortex and were incubated at 37° C. for one hour and thirty minutes. Next, the cells were pelleted at 1200 rpm for 7 minutes and the supernatant was discarded.
(§1) The cells were then resuspended in RPMI++ at a concentration of 3×10^5 cells per ml. […] Cells were then incubated at 37° C. in a 5% CO2 enriched incubator. The medium was changed on day 4, 7, and finally day 11. The infection was stopped on day 11 or 14. During each media change, approximately 0.8 ml was replaced and 0.8 ml of the supernatant was transferred to a sterile 96 well plate and stored at −80° C. for p24 analysis.
(§2) The presence of p24 in the supernatants was determined using a p24 antigen detection method. […] By one approach, a capture-assay is employed, wherein the viral antigen is captured on a 96-well plate coated with a polyclonal anti-p24 rabbit serum (Swedish Institute for infectious disease control). The captured antigen is then detected with peroxidase conjugated anti-p24 mouse monoclonal antibodies. The conjugate is a pool of three different monoclonal antibodies. The analysis was performed with cell free supernatant directly from the cell culture or with supernatant that had been stored at −20° C. to −80° C.
Accordingly, a p24 standard was diluted (e.g., 4, 2, 1, 0.5, 0.25, 0.125, 0.0625 ng/ml) in RPMI++ media. […] In some cases, serial dilutions of the supernatants were made so as to more accurately detect p24 concentration. Coated plates (e.g., plates coated with a polyclonal anti-p24 rabbit serum) were washed 4 times with approximately 300–350 μl/well washing buffer (PBS with 0.05% Tween-20). The plates were inverted and tapped against absorbant paper after each wash to discard the superfluous washing buffer. Approximately, 100 μl of each sample and standard was added to individual wells on the plate. The plates were covered with tape and incubated at 37° C. for 2 hours or in the dark at room temperature over night.
Next, the plates were washed again as above. Approximately 100 μl/well of conjugate diluted in conjugate buffer (PBS with 0.5% Triton X-100, 0.5% Bovine Serum Albumin, 0.05% Tween-20, and 10% Fetal Bovine Serum). The plates were then covered with tape and incubated at 37° C. for 2 to 4 hours.

HIV [2] = assay: Electron microscopy of HIV budding in treated HUT78 cells (nodular structures); format: cell-based
HIV-1 [3] = settings: for Mean p24: CEM cells, 100 μM, culture supernatant, day 11 after infection (FIG. 2), inf. control 1.62; for inhibition of HIV-1 replication (in words): infected CEM cells, 100 μM concentration
Experimental: By one approach, virus was added at 50–100 TCID50 to 3×10^5 H9 cells in a total volume of 500 μl containing RPMI 1640 medium supplemented with 10% (v/v) heat-inactivated fetal bovine serum (FBS), L-Glutamine, and Bensylpenicillin and Streptomycin (PS) (approximately 0.5 ml added to 500 ml RPMI medium), all available through LifeTechnology/GIBCO laboratories. […] The virus and cells were then mixed gently on a vortex and were incubated at 37° C. for one hour and thirty minutes. Next, the cells were pelleted at 1200 rpm for 7 minutes and the supernatant was discarded.
as §1, §2
Accordingly, a p24 standard was diluted (e.g., 4, 2, 1, 0.5, 0.25, 0.125, 0.0625 ng/ml) in RPMI++ media. The standard, recombinant HIV-1 LAI gag p24, was purchased from NIBSC, Centralized Facility for AIDS Reagent, MRC. (order no EVA620). In some cases, serial dilutions of the supernatants were made so as to more accurately detect p24 concentration. Coated plates (e.g., plates coated with a polyclonal anti-p24 rabbit serum) were washed 4 times with approximately 300–350 μl/well washing buffer (PBS with 0.05% Tween-20). The plates were inverted and tapped against absorbant paper after each wash to discard the superfluous washing buffer. Approximately, 100 μl of each sample and standard was added to individual wells on the plate. The plates were covered with tape and incubated at 37° C. for 2 hours or in the dark at room temperature over night.
Next, the plates were washed again as above. Approximately 100 μl/well of conjugate diluted in conjugate buffer (PBS with 0.5% Triton X-100, 0.5% Bovine Serum Albumin, 0.05% Tween-20, and 10% Fetal Bovine Serum). The plates were then covered with tape and incubated at 37° C. for 2 to 4 hours. The OPD substrate (ABBOTT) was then prepared by adding 1 tablet of OPD per 5 ml OPD substrate solution (12.8 mg OPD (o-phenylenediamine. 2 HCl) per tablet and 1 tablet was dissolved in 5 ml citrate-phosphate buffer containing 0.02% hydrogen peroxidase). The solution was kept in the dark until it was used. The conjugate bound plates were then washed as above and, after the final wash, 100 μof OPD substrate solution/well was added and the plates were incubated at room temperature for 30 minutes.

HIV [4] = assay: Electron microscopy of HIV budding in treated ACH-2 cells (nodular structures); format: cell-based
[5] = HIV infected H9 cells, 100 μM, day 11 (FIG. 3)
[6] = ACH-2 cells, electron microscopy

Question: Which “effect on HIV replication/infectivity (in words)” value (HIV-1 [1]; H9 cells) does the source give for `CC[C@H](C)[C@H](NC(=O)[C@H](C)N)C(=O)NCC(N)=O` [AIG-NH2, alanyl-isoleucyl-glycine-amide] (H-Ala-Ile-Gly-NH2) here?
Answer: almost completely inhibited HIV replication

Question: And the “p24 ng/ml Mean” value (HIV-1 [1]; H9 cells)?
Answer: 10.69 ng/mL

Question: What does the source list for `CC(C)C[C@H](NC(=O)[C@H](C)N)C(=O)NCC(N)=O` [ALG-NH2, alanyl-leucyl-glycine-amide] (H-Ala-Leu-Gly-NH2)?
Answer: dense nodular structure attached to the outer part of viral envelope (HIV [2]): 8%; treated cells carrying virus particles that had nodular structures on outer membrane (HIV [2]): 56%

Question: Which “effect on HIV replication/infectivity (in words)” value (HIV-1 [1]; H9 cells) does the source give for `C[C@H](N)C(=O)N1CCC[C@H]1C(=O)NCC(N)=O` [APG-NH2, alanyl-prolyl-glycine-amide] (H-Ala-Pro-Gly-NH2) here?
Answer: almost completely inhibited HIV replication

Question: What about the “p24 ng/ml Mean” value (HIV-1 [1]; H9 cells) of the same compound?
Answer: 1.13 ng/mL

Question: And the “Mean p24” value (HIV-1 [3])?
Answer: 0.01 ng/mL

Question: And the “inhibition of HIV-1 replication (in words)” value (HIV-1 [3])?
Answer: inhibit HIV-1 replication

Question: `NCC(N)=O` [G-NH2, glycine amide] was tested. Which “inhibition of HIV replication at 20 μM (in words)” value (HIV-1 [1]; H9 cells, 20 μM, p24 at day 11 after infection (FIG. 4)) did it give?
Answer: almost completely inhibited HIV replication

Question: And the “dose dependence of inhibition of HIV replication (in words)” value (HIV-1 [1]; H9 cells, 0.5–20 μM, p24 at day 11 after infection (FIG. 4))?
Answer: inhibits HIV replication in a dose dependent manner

Question: And the “concentration at which significant inhibition of HIV replication was achieved” value (HIV-1 [1]; H9 cells, p24 at day 11 after infection, 0.5–20 μM tested (FIG. 4))?
Answer: less than 5 μM

Question: What about the “amount of p24 in culture supernatant compared with controls (in words)” value (HIV-1 [1]; [5]) of the same compound?
Answer: almost identical to that found in the non-infected control

Question: And the “Mean p24” value (HIV-1 [3])?
Answer: 0.04 ng/mL

Question: What about the “inhibition of HIV-1 replication (in words)” value (HIV-1 [3]) of the same compound?
Answer: inhibited HIV-1 replication

Question: Which “p24 present in the culture supernatant” value (HIV-1 [1]; [5]) does the source give for `NCC(=O)O` [G-OH, glycine] here?
Answer: approximately 65 ng/ml

Question: What about the “Mean p24” value (HIV-1 [3]) of the same compound?
Answer: 1.73 ng/mL

Question: What about the “inhibition of HIV-1 replication (in words)” value (HIV-1 [3]) of the same compound?
Answer: an inhibition of HIV-1 replication was not observed

Question: How did the “effect on HIV replication/infectivity (in words)” value (HIV-1 [1]; H9 cells) turn out when `NCC(=O)N[C@@H](Cc1ccccc1)C(=O)NCC(N)=O` [GFG-NH2, glycyl-phenylalanyl-glycine-amide] (H-Gly-Phe-Gly-NH2) was run?
Answer: almost completely inhibited HIV replication

Question: What about the “p24 ng/ml Mean” value (HIV-1 [1]; H9 cells) of the same compound?
Answer: 0.45 ng/mL

Question: What about the “Mean p24” value (HIV-1 [3]) of the same compound?
Answer: 0.08 ng/mL

Question: What about the “inhibition of HIV-1 replication (in words)” value (HIV-1 [3]) of the same compound?
Answer: inhibit HIV-1 replication

Question: `NCC(=O)NCC(=O)NCC(N)=O` [GGG-NH2, glycyl-glycyl-glycine-amide, reference compound] (H-Gly-Gly-Gly-NH2) was tested. Which “effect on HIV replication/infectivity (in words)” value (HIV-1 [1]; H9 cells) did it give?
Answer: little affect on HIV infectivity

Question: What about the “p24 ng/ml Mean” value (HIV-1 [1]; H9 cells) of the same compound?
Answer: 61.82 ng/mL

Question: For `CC(C)C[C@H](NC(=O)CN)C(=O)NCC(N)=O` [GLG-NH2, glycyl-leucyl-glycine-amide] (H-Gly-Leu-Gly-NH2), which “effect on HIV replication/infectivity (in words)” value (HIV-1 [1]; H9 cells) is on record?
Answer: almost completely inhibited HIV replication

Question: And the “p24 ng/ml Mean” value (HIV-1 [1]; H9 cells)?
Answer: 2.71 ng/mL

Question: What does the source list for `NCC(=O)N1CCC[C@H]1C(=O)NCC(N)=O` [GPG-NH2, glycyl-prolyl-glycine-amide, reference compound] (H-Gly-Pro-Gly-NH2)?
Answer: nodules in cells not stimulated with PMA to produce virus (in words) (HIV [4]; ACH-2 cells, 1 mM, no PMA stimulation): did not show such nodules; dense nodular structure attached to the outer part of viral envelope (HIV [4]; [6]): 2%; treated cells carrying virus particles that had nodular structures on outer membrane (HIV [4]; [6]): 74%; nodules upon combined treatment with protease inhibitor ritonavir (in words) (HIV [4]; PMA stimulated ACH-2 cells, GPG-NH2 1 mM plus ritonavir 2 μM): gave no such nodules; dense nodular structure attached to the outer part of viral envelope (HIV [2]): 4%; treated cells carrying virus particles that had nodular structures on outer membrane (HIV [2]): 65%; effect on HIV replication/infectivity (in words) (HIV-1 [1]; H9 cells): almost completely inhibited HIV replication; p24 ng/ml Mean (HIV-1 [1]; H9 cells): 0.42 ng/mL; Mean p24 (HIV-1 [3]): 0.07 ng/mL

Question: For `NCC(=O)N[C@@H](Cc1c[nH]c2ccccc12)C(=O)NCC(N)=O` [GWG-NH2, glycyl-tryptophanyl-glycine-amide] (H-Gly-Trp-Gly-NH2), which “effect on HIV replication/infectivity (in words)” value (HIV-1 [1]; H9 cells) is on record?
Answer: almost completely inhibited HIV replication

Question: What about the “p24 ng/ml Mean” value (HIV-1 [1]; H9 cells) of the same compound?
Answer: 0.61 ng/mL

Question: What about the “Mean p24” value (HIV-1 [3]) of the same compound?
Answer: 0.15 ng/mL

Question: What about the “inhibition of HIV-1 replication (in words)” value (HIV-1 [3]) of the same compound?
Answer: inhibit HIV-1 replication

Question: For `NCC(=O)N[C@@H](Cc1ccc(O)cc1)C(=O)NCC(N)=O` [GYG-NH2, glycyl-tyrosyl-glycine-amide] (H-Gly-Tyr-Gly-NH2), which “Mean p24” value (HIV-1 [3]) is on record?
Answer: 0.02 ng/mL

Question: What about the “inhibition of HIV-1 replication (in words)” value (HIV-1 [3]) of the same compound?
Answer: inhibited HIV-1 replication

Question: Which “Mean p24” value (HIV-1 [3]) does the source give for `CC(C)C[C@H](N)C(=O)N[C@@H](CC(N)=O)C(=O)N[C@@H](Cc1ccccc1)C(N)=O` [LNF-NH2, leucyl-asparagyl-phenylalanine-amide, reference compound] (H-Leu-Asn-Phe-NH2) here?
Answer: 1.45 ng/mL

Question: “fenylalanyl-leucyl-glycine-amide [FLG-NH2]” was tested. Which “effect on HIV replication/infectivity (in words)” value (HIV-1 [1]; H9 cells) did it give?
Answer: almost completely inhibited HIV replication

Question: What about the “p24 ng/ml Mean” value (HIV-1 [1]; H9 cells) of the same compound?
Answer: 0.25 ng/mL

Question: What about the “Mean p24” value (HIV-1 [3]) of the same compound?
Answer: 0.00 ng/mL

Question: What about the “inhibition of HIV-1 replication (in words)” value (HIV-1 [3]) of the same compound?
Answer: inhibit HIV-1 replication

Question: For “prolyl-glycine-arginine-amide [PGR-NH2, reference compound]”, which “effect on HIV replication/infectivity (in words)” value (HIV-1 [1]; H9 cells) is on record?
Answer: little affect on HIV infectivity

Question: And the “p24 ng/ml Mean” value (HIV-1 [1]; H9 cells)?
Answer: 55.93 ng/mL

Question: Which results are given for “α-tertiary-butylglycine-prolyl-glycine-amide [tbutGPG-NH2]”?
Answer: effect on HIV replication/infectivity (in words) (HIV-1 [1]; H9 cells): almost completely inhibited HIV replication; p24 ng/ml Mean (HIV-1 [1]; H9 cells): 0.44 ng/mL; Mean p24 (HIV-1 [3]): -0.01 ng/mL; inhibition of HIV-1 replication (in words) (HIV-1 [3]): inhibit HIV-1 replication
